# Measured values as given in article PMC6009956, “Design, synthesis and biological activity of N^4-phenylsubstituted-7H-pyrrolo[2,3-d]pyrimidin-4-amines as dual inhibitors of aurora kinase A and epidermal growth factor receptor kinase” (Journal of Enzyme Inhibition and Medicinal Chemistry, 2017).
# Read-outs that look alike come from different tables or passages of the source.
# Key:
# aurora A kinase (AURKA) = biological target: T1, aurora A kinase (AURKA) (Homo sapiens, UniProt O14965); assay: ADP-Glo kinase assay, Aurora A; assay type: biochemical
# T1 construct: purchased BPS Bioscience (assay run externally by the vendor)
# T1 sequence (O14965 1-403): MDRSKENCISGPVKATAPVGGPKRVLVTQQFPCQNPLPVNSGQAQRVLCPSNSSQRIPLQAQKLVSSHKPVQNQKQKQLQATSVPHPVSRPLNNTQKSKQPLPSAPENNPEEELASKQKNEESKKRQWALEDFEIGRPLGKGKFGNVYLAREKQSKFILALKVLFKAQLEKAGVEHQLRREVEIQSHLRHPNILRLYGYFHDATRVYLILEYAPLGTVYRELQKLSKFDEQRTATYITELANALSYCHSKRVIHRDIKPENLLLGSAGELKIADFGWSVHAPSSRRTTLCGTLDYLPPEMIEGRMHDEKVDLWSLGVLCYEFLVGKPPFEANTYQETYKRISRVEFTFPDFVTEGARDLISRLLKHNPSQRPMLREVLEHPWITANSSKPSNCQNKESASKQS
# EGFR = EGFR (Homo sapiens, UniProt P00533); assay: ADP-Glo kinase assay, EGFR; assay type: biochemical; design: purchased BPS Bioscience (assay run externally by the vendor)
# [1] = 10 µM ATP, triplicate, read-out: AURKA IC50 ± SD
# [2] = 10 µM ATP/0.2 mg/ml Kemptide, read-out: Aurora A IC50 (dose-response curve, supplement)
# [3] = 10 µM ATP, triplicate, read-out: EGFR IC50 ± SD
# [4] = 10 µM ATP/0.2 mg/ml Poly-Glu-Tyr, read-out: EGFR IC50 (dose-response curve, supplement)
# EGFR, sequence (P00533 25-1210): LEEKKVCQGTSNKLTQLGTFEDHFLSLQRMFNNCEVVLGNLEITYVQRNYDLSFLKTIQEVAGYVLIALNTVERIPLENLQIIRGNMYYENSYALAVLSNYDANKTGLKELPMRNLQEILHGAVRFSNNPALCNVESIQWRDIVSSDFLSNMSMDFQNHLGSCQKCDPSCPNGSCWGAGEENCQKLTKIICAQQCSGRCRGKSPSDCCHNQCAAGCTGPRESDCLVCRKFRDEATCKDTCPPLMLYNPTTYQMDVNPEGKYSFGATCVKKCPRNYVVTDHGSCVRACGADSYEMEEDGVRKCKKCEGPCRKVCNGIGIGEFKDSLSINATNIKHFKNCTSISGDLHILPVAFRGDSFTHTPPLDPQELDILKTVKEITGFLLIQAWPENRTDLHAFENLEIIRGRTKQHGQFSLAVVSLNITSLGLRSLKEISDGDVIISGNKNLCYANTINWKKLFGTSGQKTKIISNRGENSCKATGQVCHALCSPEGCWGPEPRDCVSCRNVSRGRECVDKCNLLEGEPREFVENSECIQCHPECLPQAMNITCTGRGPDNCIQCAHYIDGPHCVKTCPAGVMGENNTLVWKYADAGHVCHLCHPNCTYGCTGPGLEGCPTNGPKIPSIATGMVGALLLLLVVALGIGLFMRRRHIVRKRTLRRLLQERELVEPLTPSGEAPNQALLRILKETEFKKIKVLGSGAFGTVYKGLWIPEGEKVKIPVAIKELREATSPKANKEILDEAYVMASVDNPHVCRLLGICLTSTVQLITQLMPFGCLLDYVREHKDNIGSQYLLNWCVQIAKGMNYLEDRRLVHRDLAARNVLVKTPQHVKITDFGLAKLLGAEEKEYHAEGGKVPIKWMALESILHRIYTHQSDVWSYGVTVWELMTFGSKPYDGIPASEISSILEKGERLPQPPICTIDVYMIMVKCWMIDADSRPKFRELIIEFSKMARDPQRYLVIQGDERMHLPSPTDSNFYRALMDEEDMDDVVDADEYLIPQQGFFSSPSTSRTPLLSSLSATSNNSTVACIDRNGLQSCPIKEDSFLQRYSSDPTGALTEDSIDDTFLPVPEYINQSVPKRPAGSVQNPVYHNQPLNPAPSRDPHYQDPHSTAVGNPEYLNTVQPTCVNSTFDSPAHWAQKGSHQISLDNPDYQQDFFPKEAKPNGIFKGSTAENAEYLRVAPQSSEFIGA
smiles,measurement,setting,value
"Fc1cc(Nc2ncnc3[nH]ccc23)ccc1Cl [Compound 3, N^4-(3-fluoro-4-chlorophenyl)-7H-pyrrolo[2,3-d]pyrimidine-4-amine]",IC50,aurora A kinase (AURKA); [1],3290 ± 150 nM
same,IC50,aurora A kinase (AURKA); [2],3300 nM
same,Aurora A % Activity Set1,aurora A kinase (AURKA); Log[nM] 0,95%
same,Aurora A % Activity Set2,aurora A kinase (AURKA); Log[nM] 0,93%
same,Aurora A % Activity Set3,aurora A kinase (AURKA); Log[nM] 0,100%
same,Aurora A % Activity Set1,aurora A kinase (AURKA); Log[nM] 1.0,99%
same,Aurora A % Activity Set2,aurora A kinase (AURKA); Log[nM] 1.0,96%
same,Aurora A % Activity Set3,aurora A kinase (AURKA); Log[nM] 1.0,101%
same,Aurora A % Activity Set1,aurora A kinase (AURKA); Log[nM] 1.5,99%
same,Aurora A % Activity Set2,aurora A kinase (AURKA); Log[nM] 1.5,94%
same,Aurora A % Activity Set3,aurora A kinase (AURKA); Log[nM] 1.5,105%
same,Aurora A % Activity Set1,aurora A kinase (AURKA); Log[nM] 2.0,105%
same,Aurora A % Activity Set2,aurora A kinase (AURKA); Log[nM] 2.0,104%
same,Aurora A % Activity Set3,aurora A kinase (AURKA); Log[nM] 2.0,107%
same,Aurora A % Activity Set1,aurora A kinase (AURKA); Log[nM] 2.5,104%
same,Aurora A % Activity Set2,aurora A kinase (AURKA); Log[nM] 2.5,105%
same,Aurora A % Activity Set3,aurora A kinase (AURKA); Log[nM] 2.5,103%
same,Aurora A % Activity Set1,aurora A kinase (AURKA); Log[nM] 3.0,78%
same,Aurora A % Activity Set2,aurora A kinase (AURKA); Log[nM] 3.0,75%
same,Aurora A % Activity Set3,aurora A kinase (AURKA); Log[nM] 3.0,77%
same,Aurora A % Activity Set1,aurora A kinase (AURKA); Log[nM] 3.5,53%
same,Aurora A % Activity Set2,aurora A kinase (AURKA); Log[nM] 3.5,57%
same,Aurora A % Activity Set3,aurora A kinase (AURKA); Log[nM] 3.5,52%
same,Aurora A % Activity Set1,aurora A kinase (AURKA); Log[nM] 4.0,17%
same,Aurora A % Activity Set2,aurora A kinase (AURKA); Log[nM] 4.0,16%
same,Aurora A % Activity Set3,aurora A kinase (AURKA); Log[nM] 4.0,16%
same,Aurora A % Activity Set1,aurora A kinase (AURKA); Log[nM] 4.5,7%
same,Aurora A % Activity Set2,aurora A kinase (AURKA); Log[nM] 4.5,6%
same,Aurora A % Activity Set3,aurora A kinase (AURKA); Log[nM] 4.5,7%
same,Aurora A % Activity Set1,aurora A kinase (AURKA); Log[nM] 5.0,6%
same,Aurora A % Activity Set2,aurora A kinase (AURKA); Log[nM] 5.0,5%
same,Aurora A % Activity Set3,aurora A kinase (AURKA); Log[nM] 5.0,5%
same,EGFR inhibition (in words),EGFR,single-digit nanomolar EGFR inhibition
same,IC50,EGFR; [3],5.98 ± 0.61 nM
same,IC50,EGFR; [4],5.9 nM
same,EGFR % Activity Set1,EGFR; Log[nM] 0,57%
same,EGFR % Activity Set2,EGFR; Log[nM] 0,58%
same,EGFR % Activity Set3,EGFR; Log[nM] 0,56%
same,EGFR % Activity Set1,EGFR; Log[nM] 1.0,38%
same,EGFR % Activity Set2,EGFR; Log[nM] 1.0,37%
same,EGFR % Activity Set3,EGFR; Log[nM] 1.0,40%
same,EGFR % Activity Set1,EGFR; Log[nM] 1.5,13%
same,EGFR % Activity Set2,EGFR; Log[nM] 1.5,16%
same,EGFR % Activity Set3,EGFR; Log[nM] 1.5,16%
same,EGFR % Activity Set1,EGFR; Log[nM] 2.0,7%
same,EGFR % Activity Set2,EGFR; Log[nM] 2.0,7%
same,EGFR % Activity Set3,EGFR; Log[nM] 2.0,8%
same,EGFR % Activity Set1,EGFR; Log[nM] 2.5,2%
same,EGFR % Activity Set2,EGFR; Log[nM] 2.5,4%
same,EGFR % Activity Set3,EGFR; Log[nM] 2.5,3%
same,EGFR % Activity Set1,EGFR; Log[nM] 3.0,1%
same,EGFR % Activity Set2,EGFR; Log[nM] 3.0,1%
same,EGFR % Activity Set3,EGFR; Log[nM] 3.0,2%
same,EGFR % Activity Set1,EGFR; Log[nM] 3.5,0%
same,EGFR % Activity Set2,EGFR; Log[nM] 3.5,1%
same,EGFR % Activity Set3,EGFR; Log[nM] 3.5,0%
same,EGFR % Activity Set1,EGFR; Log[nM] 4.0,0%
same,EGFR % Activity Set2,EGFR; Log[nM] 4.0,0%
same,EGFR % Activity Set3,EGFR; Log[nM] 4.0,0%
same,EGFR % Activity Set1,EGFR; Log[nM] 4.5,0%
same,EGFR % Activity Set2,EGFR; Log[nM] 4.5,0%
same,EGFR % Activity Set3,EGFR; Log[nM] 4.5,0%
same,EGFR % Activity Set1,EGFR; Log[nM] 5.0,0%
same,EGFR % Activity Set2,EGFR; Log[nM] 5.0,0%
same,EGFR % Activity Set3,EGFR; Log[nM] 5.0,0%
"Clc1ccc(Nc2ncnc3[nH]ccc23)cc1Br [Compound 7, N^4-(3-bromo, 4-chlorophenyl)-7H-pyrrolo[2,3-d]pyrimidine-4-amine]",IC50,aurora A kinase (AURKA); [1],3230 ± 310 nM
same,IC50,aurora A kinase (AURKA); [2],3300 nM
same,Aurora A % Activity Set1,aurora A kinase (AURKA); Log[nM] 0,95%
same,Aurora A % Activity Set2,aurora A kinase (AURKA); Log[nM] 0,102%
same,Aurora A % Activity Set3,aurora A kinase (AURKA); Log[nM] 0,95%
same,Aurora A % Activity Set1,aurora A kinase (AURKA); Log[nM] 1.0,100%
same,Aurora A % Activity Set2,aurora A kinase (AURKA); Log[nM] 1.0,103%
same,Aurora A % Activity Set3,aurora A kinase (AURKA); Log[nM] 1.0,99%
same,Aurora A % Activity Set1,aurora A kinase (AURKA); Log[nM] 1.5,100%
same,Aurora A % Activity Set2,aurora A kinase (AURKA); Log[nM] 1.5,103%
same,Aurora A % Activity Set3,aurora A kinase (AURKA); Log[nM] 1.5,103%
same,Aurora A % Activity Set1,aurora A kinase (AURKA); Log[nM] 2.0,100%
same,Aurora A % Activity Set2,aurora A kinase (AURKA); Log[nM] 2.0,106%
same,Aurora A % Activity Set3,aurora A kinase (AURKA); Log[nM] 2.0,105%
same,Aurora A % Activity Set1,aurora A kinase (AURKA); Log[nM] 2.5,95%
same,Aurora A % Activity Set2,aurora A kinase (AURKA); Log[nM] 2.5,97%
same,Aurora A % Activity Set3,aurora A kinase (AURKA); Log[nM] 2.5,95%
same,Aurora A % Activity Set1,aurora A kinase (AURKA); Log[nM] 3.0,95%
same,Aurora A % Activity Set2,aurora A kinase (AURKA); Log[nM] 3.0,103%
same,Aurora A % Activity Set3,aurora A kinase (AURKA); Log[nM] 3.0,93%
same,Aurora A % Activity Set1,aurora A kinase (AURKA); Log[nM] 3.5,40%
same,Aurora A % Activity Set2,aurora A kinase (AURKA); Log[nM] 3.5,40%
same,Aurora A % Activity Set3,aurora A kinase (AURKA); Log[nM] 3.5,37%
same,Aurora A % Activity Set1,aurora A kinase (AURKA); Log[nM] 4.0,16%
same,Aurora A % Activity Set2,aurora A kinase (AURKA); Log[nM] 4.0,16%
same,Aurora A % Activity Set3,aurora A kinase (AURKA); Log[nM] 4.0,15%
same,Aurora A % Activity Set1,aurora A kinase (AURKA); Log[nM] 4.5,31%
same,Aurora A % Activity Set2,aurora A kinase (AURKA); Log[nM] 4.5,30%
same,Aurora A % Activity Set3,aurora A kinase (AURKA); Log[nM] 4.5,30%
same,Aurora A % Activity Set1,aurora A kinase (AURKA); Log[nM] 5.0,17%
same,Aurora A % Activity Set2,aurora A kinase (AURKA); Log[nM] 5.0,15%
same,Aurora A % Activity Set3,aurora A kinase (AURKA); Log[nM] 5.0,16%
same,EGFR inhibition (in words),EGFR,single-digit nanomolar EGFR inhibition
same,IC50,EGFR; [3],3.63 ± 0.43 nM
same,IC50,EGFR; [4],3.6 nM
same,EGFR % Activity Set1,EGFR; Log[nM] 0,44%
same,EGFR % Activity Set2,EGFR; Log[nM] 0,50%
same,EGFR % Activity Set3,EGFR; Log[nM] 0,53%
same,EGFR % Activity Set1,EGFR; Log[nM] 1.0,18%
same,EGFR % Activity Set2,EGFR; Log[nM] 1.0,17%
same,EGFR % Activity Set3,EGFR; Log[nM] 1.0,20%
same,EGFR % Activity Set1,EGFR; Log[nM] 1.5,12%
same,EGFR % Activity Set2,EGFR; Log[nM] 1.5,13%
same,EGFR % Activity Set3,EGFR; Log[nM] 1.5,15%
same,EGFR % Activity Set1,EGFR; Log[nM] 2.0,4%
same,EGFR % Activity Set2,EGFR; Log[nM] 2.0,5%
same,EGFR % Activity Set3,EGFR; Log[nM] 2.0,4%
same,EGFR % Activity Set1,EGFR; Log[nM] 2.5,3%
same,EGFR % Activity Set2,EGFR; Log[nM] 2.5,3%
same,EGFR % Activity Set3,EGFR; Log[nM] 2.5,3%
same,EGFR % Activity Set1,EGFR; Log[nM] 3.0,1%
same,EGFR % Activity Set2,EGFR; Log[nM] 3.0,2%
same,EGFR % Activity Set3,EGFR; Log[nM] 3.0,2%
same,EGFR % Activity Set1,EGFR; Log[nM] 3.5,1%
same,EGFR % Activity Set2,EGFR; Log[nM] 3.5,1%
same,EGFR % Activity Set3,EGFR; Log[nM] 3.5,0%
same,EGFR % Activity Set1,EGFR; Log[nM] 4.0,0%
same,EGFR % Activity Set2,EGFR; Log[nM] 4.0,0%
same,EGFR % Activity Set3,EGFR; Log[nM] 4.0,0%
same,EGFR % Activity Set1,EGFR; Log[nM] 4.5,1%
same,EGFR % Activity Set2,EGFR; Log[nM] 4.5,1%
same,EGFR % Activity Set3,EGFR; Log[nM] 4.5,1%
same,EGFR % Activity Set1,EGFR; Log[nM] 5.0,0%
same,EGFR % Activity Set2,EGFR; Log[nM] 5.0,0%
same,EGFR % Activity Set3,EGFR; Log[nM] 5.0,0%
